The text below walks through data of the NIST ThermoML archive (doi:10.1021/je030231w).

As usually defined, the vapor or sublimation pressure is the pressure of vapour in equilibrium with the condensed phase. In general, mass density refers to mass per unit of volume.

The conditions of data set [1]: Crystal, Calculated from knudsen effusion weight loss.
Data set [2] is described as follows: mn = molality of the nth substance listed, in mol/kg. The conditions noted are these: 298 K, 101.3 kPa, Liquid.

Molecules are shown by their SMILES. “And” between values parts separate entries of the source, which are not always exact repeats. Equal entries are not always repeated. Numbers after ± are expanded uncertainties.

In the case of `O=c1[nH]cc(C(F)(F)F)c(=O)[nH]1` [5-(trifluoromethyl)uracil], the “vapor or sublimation pressure” value in data set [1] (373.02 K) is 1.187e-05 ± 6e-07 kPa and 1.168e-05 ± 5.9e-07 kPa; in data set [1] (374.94 K), 1.376e-05 ± 7e-07 kPa; in data set [1] (378.75 K), 2.012e-05 ± 1e-06 kPa; in data set [1] (380.67 K), 2.417e-05 ± 1.2e-06 kPa; in data set [1] (382.54 K) it was 2.882e-05 ± 1.5e-06 kPa; in data set [1] (384.45 K), 3.348e-05 ± 1.7e-06 kPa. The “vapor or sublimation pressure” value in data set [1] (386.35 K) was 3.983e-05 ± 2e-06 kPa; in data set [1] (388.25 K) it was 4.61e-05 ± 2.3e-06 kPa; in data set [1] (390.15 K), 5.586e-05 ± 2.8e-06 kPa; in data set [1] (392.01 K), 6.401e-05 ± 3.2e-06 kPa and 6.45e-05 ± 3.2e-06 kPa.
Consider `O=c1[nH]cc(C(F)(F)F)c(=O)[nH]1` [5-(trifluoromethyl)uracil] + O, for which the mass density amounted to 997.88 ± 0.2 kg/m3 in data set [2] (m1 = 0.01034); 997.938 ± 0.2 kg/m3 in data set [2] (m1 = 0.01092); 997.946 ± 0.19 kg/m3 in data set [2] (m1 = 0.01101); 997.96 ± 0.19 kg/m3 in data set [2] (m1 = 0.01122); 998.017 ± 0.19 kg/m3 in data set [2] (m1 = 0.01187); 998.089 ± 0.18 kg/m3 in data set [2] (m1 = 0.01292).
